According to PubChem BioAssay AID328 (DTP/NCI, 2004):
“And” between values parts separate entries of the source, which are not always exact repeats. Equal entries are not always repeated. Toxic doses and inconclusive results are not listed. How the source made its calls: active means survival T/C of 150% or more; inactive means T/C below 125% in these data.

System: BDF1 mice, P388 leukemia ip, median survival T/C
Assay: NCI In Vivo Anticancer Drug Screen. Data for tumor model P388 Leukemia (intraperitoneal) in B6D2F1 (BDF1) mice
Details: endpoint: median survival time, higher = longer survival
Procedure, shortened: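 Vehicle-dosed animals serve as the reference; survival of compound-dosed, tumour-implanted mice is divided by it.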

[1] = dose: 100.0 mg/kg/injection, schedule: Q04DX003 (ip), vehicle: saline with Tween-80
[2] = dose: 200.0 mg/kg/injection, schedule: Q04DX003 (ip), vehicle: saline with Tween-80
[3] = dose: 400.0 mg/kg/injection, schedule: Q04DX003 (ip), vehicle: saline with Tween-80
[4] = dose: 200.0 mg/kg/injection, schedule: Q01DX009 (ip), vehicle: saline with Tween-80
[5] = dose: 100.0 mg/kg/injection, schedule: Q01DX001 (ip), vehicle: saline
[6] = dose: 100.0 mg/kg/injection, schedule: Q01DX009 (ip), vehicle: Klucel (hydroxypropylcellulose) (HPC)
[7] = dose: 200.0 mg/kg/injection, schedule: Q01DX001 (ip), vehicle: saline
[8] = dose: 200.0 mg/kg/injection, schedule: Q01DX009 (ip), vehicle: Klucel (hydroxypropylcellulose) (HPC)
[9] = dose: 400.0 mg/kg/injection, schedule: Q01DX001 (ip), vehicle: saline
[10] = dose: 50.0 mg/kg/injection, schedule: Q01DX009 (ip), vehicle: Klucel (hydroxypropylcellulose) (HPC)

Measured: T/C

COC(=O)C1C(c2ccccc2)=NC(c2ccccc2)C1C(=O)OC (stereo not drawn)
inactive: dose: 100.0 mg/kg/injection, schedule: Q01DX001 (ip), vehicle: saline with Tween-80 101 % of control | dose: 200.0 mg/kg/injection, schedule: Q01DX001 (ip), vehicle: saline with Tween-80 96 % of control | dose: 400.0 mg/kg/injection, schedule: Q01DX001 (ip), vehicle: saline with Tween-80 109 % of control

CC(=O)CC(=O)Nc1ccc([N+](=O)[O-])cc1
inactive: dose: 50.0 mg/kg/injection, schedule: Q04DX003 (ip), vehicle: saline with Tween-80 109 % of control | [1] 109 % of control | [2] 95 % of control | [3] 100 % of control

COc1ccc2c(=O)c3c(=O)c4c(=O)oc5ccccc5c4oc3oc2c1
inactive: dose: 50.0 mg/kg/injection, schedule: Q01DX009 (ip), vehicle: saline with Tween-80 88 % of control | dose: 100.0 mg/kg/injection, schedule: Q01DX009 (ip), vehicle: saline with Tween-80 88 % of control | [4] 88 % of control

O=[N+]([O-])c1ccc(OCc2ccc(S(=O)(=O)F)c(Cl)c2)c(Cl)c1
inactive: [5] 115 % of control | [6] 102 % of control | [7] 100 % of control | [8] 100 % of control | [9] 103 % of control | dose: 400.0 mg/kg/injection, schedule: Q01DX009 (ip), vehicle: Klucel (hydroxypropylcellulose) (HPC) 103 % of control

Cc1cc2nc3c(nc2cc1C)-c1ccccc1C3=O
inactive: [1] 110 % of control | [2] 100 % of control | [3] 100 % of control

CO[C@H]1C[C@H](O[C@H]2CC[C@]3(C=O)[C@H]4CC[C@]5(C)[C@@H](C6=CC(=O)OC6)CC[C@]5(O)[C@@H]4CC[C@]3(O)C2)O[C@H](C)[C@H]1O[C@@H]1O[C@H](CO[C@@H]2O[C@H](CO)[C@@H](O)[C@H](O)[C@H]2O)[C@@H](O)[C@H](O)[C@H]1O
inactive: dose: 0.5 mg/kg/injection, schedule: Q01DX010 (ip), vehicle: saline 115 % of control | dose: 1.0 mg/kg/injection, schedule: Q01DX010 (ip), vehicle: saline 110 % of control

CCC(C)(O)C#CC(C)(O)CC (stereo not drawn)
inactive: dose: 100.0 mg/kg/injection, schedule: Q04DX003 (ip), vehicle: saline 91 % of control | dose: 200.0 mg/kg/injection, schedule: Q04DX003 (ip), vehicle: saline 91 % of control | dose: 400.0 mg/kg/injection, schedule: Q04DX003 (ip), vehicle: saline 87 % of control

CCOC(=O)C(=Cc1ccc(C=C(C(=O)OCC)C(=O)OCC)cc1)C(=O)OCC
inactive: [10] 110 % of control | [6] 105 % of control | dose: 100.0 mg/kg/injection, schedule: Q04DX003 (ip), vehicle: Klucel (hydroxypropylcellulose) (HPC) 91 % of control | [8] 95 % of control | dose: 200.0 mg/kg/injection, schedule: Q04DX003 (ip), vehicle: Klucel (hydroxypropylcellulose) (HPC) 91 % of control

O=C(OC(=O)c1cccc(-c2ccccc2)c1)c1cccc(-c2ccccc2)c1
inactive: [10] 104 % of control | [6] 95 % of control | [8] 95 % of control

Cc1cc(S(=O)(=O)c2ccc(Cl)cc2)nc(S(=O)(=O)c2ccc(Cl)cc2)c1C#N
inactive: dose: 50.0 mg/kg/injection, schedule: Q01DX005 (ip), vehicle: saline with Tween-80 110 % of control | dose: 100.0 mg/kg/injection, schedule: Q01DX005 (ip), vehicle: saline with Tween-80 110 % of control

CCCCCCCCCCCC(=O)CCCCC
inactive: dose: 100.0 mg/kg/injection, schedule: Q04DX003 (ip), vehicle: other 100 % of control | dose: 200.0 mg/kg/injection, schedule: Q04DX003 (ip), vehicle: other 100 % of control | dose: 400.0 mg/kg/injection, schedule: Q04DX003 (ip), vehicle: other 104 % of control

CC(C)N(C)C(C)(C)CO
inactive: dose: 50.0 mg/kg/injection, schedule: Q01DX001 (ip), vehicle: saline 100 % of control | [5] 100 % of control | [7] 100 % of control

Clc1ccc2nc(CI)c(CI)nc2c1
inactive: dose: 3.12 mg/kg/injection, schedule: Q01DX009 (ip), vehicle: Klucel (hydroxypropylcellulose) (HPC) 100 % of control | dose: 6.25 mg/kg/injection, schedule: Q01DX009 (ip), vehicle: Klucel (hydroxypropylcellulose) (HPC) 100 % of control and 122 % of control | dose: 6.25 mg/kg/injection, schedule: Q04DX003 (ip), vehicle: saline 108 % of control | dose: 12.5 mg/kg/injection, schedule: Q01DX009 (ip), vehicle: Klucel (hydroxypropylcellulose) (HPC) 88 % of control and 100 % of control | dose: 12.5 mg/kg/injection, schedule: Q04DX003 (ip), vehicle: saline 108 % of control | dose: 22.0 mg/kg/injection, schedule: Q01DX009 (ip), vehicle: saline with Tween-80 122 % of control | dose: 25.0 mg/kg/injection, schedule: Q01DX009 (ip), vehicle: Klucel (hydroxypropylcellulose) (HPC) 95 % of control | dose: 25.0 mg/kg/injection, schedule: Q04DX003 (ip), vehicle: saline 104 % of control | dose: 33.0 mg/kg/injection, schedule: Q01DX009 (ip), vehicle: saline with Tween-80 113 % of control

Clc1c(Cl)c2c(Cl)c(Cl)c1C[P+](c1ccccc1)(c1ccccc1)CC[P+](c1ccccc1)(c1ccccc1)Cc1c(Cl)c(Cl)c(c(Cl)c1Cl)C[P+](c1ccccc1)(c1ccccc1)CC[P+](c1ccccc1)(c1ccccc1)C2
inactive: dose: 1.56 mg/kg/injection, schedule: Q01DX009 (ip), vehicle: water 92 % of control | dose: 3.13 mg/kg/injection, schedule: Q01DX009 (ip), vehicle: water 113 % of control | dose: 6.25 mg/kg/injection, schedule: Q01DX009 (ip), vehicle: water 106 % of control

CC(=O)N(O)CCCC1NC(=O)C(CCCN(O)C(C)=O)NC1=O (stereo not drawn)
inactive: [5] 90 % of control | [7] 90 % of control | [9] 95 % of control

CCO/C=C(\C#N)C(=O)O
inactive: [1] 88 % of control | [4] 111 % of control | [2] 88 % of control | dose: 400.0 mg/kg/injection, schedule: Q01DX009 (ip), vehicle: saline with Tween-80 119 % of control | [3] 92 % of control

CC(C)=CCC/C(C)=C/CO
inactive: dose: 15.6 mg/kg/injection, schedule: Q01DX010 (ip), vehicle: saline 100 % of control | dose: 31.3 mg/kg/injection, schedule: Q01DX010 (ip), vehicle: saline 100 % of control | dose: 62.5 mg/kg/injection, schedule: Q01DX010 (ip), vehicle: saline 113 % of control | dose: 125.0 mg/kg/injection, schedule: Q01DX010 (ip), vehicle: saline 118 % of control

CS(=O)(=O)n1c(CBr)nc2ccccc21
inactive: dose: 25.0 mg/kg/injection, schedule: Q04DX003 (ip), vehicle: saline sonified 109 % of control | dose: 50.0 mg/kg/injection, schedule: Q04DX003 (ip), vehicle: saline sonified 118 % of control | dose: 100.0 mg/kg/injection, schedule: Q04DX003 (ip), vehicle: saline sonified 122 % of control

CCOC(=O)/C(C#N)=C/N=c1ncccn1C
inactive: [1] 98 % of control | [2] 93 % of control | [3] 102 % of control

S=C(S)N1CCN(C(=S)S)CC1
inactive: dose: 25.0 mg/kg/injection, schedule: Q01DX009 (ip), vehicle: saline 100 % of control and 104 % of control and 110 % of control | dose: 35.0 mg/kg/injection, schedule: Q01DX009 (ip), vehicle: saline 91 % of control | dose: 50.0 mg/kg/injection, schedule: Q01DX009 (ip), vehicle: saline 95 % of control and 105 % of control | dose: 100.0 mg/kg/injection, schedule: Q01DX009 (ip), vehicle: saline 95 % of control | dose: 200.0 mg/kg/injection, schedule: Q01DX009 (ip), vehicle: saline 86 % of control

CN1COC(OC2CSC2)C(C)(C)C1 (stereo not drawn)
inactive: [1] 117 % of control | [2] 114 % of control | [3] 115 % of control
